Measured values reported in the supplement of paper PMC10307832.

Assays:
Assay in all cases: relative viability (nuclei count vs DMSO), 5 days (fraction); higher = more cells survive
[1] = system: NCI-H1666
Procedure, shortened: (§1)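 Five library-drug doses in √10 steps were combined with a fixed anchor-drug dose, or a single drug was given alone, by pin tool to lung cancer cell lines in 1536-well plates the day after seeding. Nuclei were stained and counted after 5 days. Relative viability is the nuclei count in treated wells over that in vehicle wells, taken as the median of duplicate plates.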

[2] = system: NCI-H23
Procedure, shortened: as §1

[3] = system: NCI-H1792
Procedure, shortened: as §1

[4] = system: NCI-H838
Procedure, shortened: as §1

[5] = system: NCI-H441
Procedure, shortened: as §1

[6] = system: HCC-44
Procedure, shortened: as §1

[7] = system: NCI-H1975
Procedure, shortened: as §1

[8] = system: HCC-827
Procedure, shortened: as §1

[9] = system: NCI-H358
Procedure, shortened: as §1

[10] = system: 201T
Procedure, shortened: as §1

[11] = system: NCI-H596
Procedure, shortened: as §1

[12] = system: EKVX
Procedure, shortened: as §1

[13] = system: HARA
Procedure, shortened: as §1

[14] = system: SK-MES-1
Procedure, shortened: as §1

[15] = system: BEN
Procedure, shortened: as §1

[16] = system: A-427
Procedure, shortened: as §1

[17] = system: NCI-H1437
Procedure, shortened: as §1

[18] = system: NCI-H650
Procedure, shortened: as §1

[19] = system: HCC-15
Procedure, shortened: as §1

[20] = system: LK-2
Procedure, shortened: as §1

[21] = system: COR-L23
Procedure, shortened: as §1

[22] = system: COR-L 105
Procedure, shortened: as §1

O=C(O)c1ccc(-c2c[nH]c3ncc(-c4ccccc4)cc23)cc1C1CCCC1 + CS(=O)(=O)N1CCN(Cc2cc3nc(-c4cccc5[nH]ncc45)nc(N4CCOCC4)c3s2)CC1 [Pictilisib] (partner 1 µM)
relative viability ([1]; first compound 0.04 µM): 0.406 | relative viability ([1]; first compound 0.1265 µM): 0.439 | relative viability ([1]; first compound 0.4 µM): 0.451 | relative viability ([1]; first compound 1.265 µM): 0.251 | relative viability ([2]; first compound 0.04 µM): 0.532 | relative viability ([2]; first compound 0.1265 µM): 0.519 | relative viability ([2]; first compound 0.4 µM): 0.43 | relative viability ([2]; first compound 1.265 µM): 0.428 | relative viability ([3]; first compound 0.04 µM): 0.287 | relative viability ([3]; first compound 0.1265 µM): 0.311 | relative viability ([3]; first compound 0.4 µM): 0.329 | relative viability ([3]; first compound 1.265 µM): 0.27 | relative viability ([4]; first compound 0.04 µM): 0.423 | relative viability ([4]; first compound 0.1265 µM): 0.57 | relative viability ([4]; first compound 0.4 µM): 0.506 | relative viability ([4]; first compound 1.265 µM): 0.447 | relative viability ([5]; first compound 0.04 µM): 0.489 | relative viability ([5]; first compound 0.1265 µM): 0.517 | relative viability ([5]; first compound 0.4 µM): 0.469 | relative viability ([5]; first compound 1.265 µM): 0.338 | relative viability ([6]; first compound 0.04 µM): 0.697 | relative viability ([6]; first compound 0.1265 µM): 0.676 | relative viability ([6]; first compound 0.4 µM): 0.668 | relative viability ([6]; first compound 1.265 µM): 0.56 | relative viability ([7]; first compound 0.04 µM): 0.256 | relative viability ([7]; first compound 0.1265 µM): 0.297 | relative viability ([7]; first compound 0.4 µM): 0.309 | relative viability ([7]; first compound 1.265 µM): 0.271 | relative viability ([8]; first compound 0.04 µM): 1.12 | relative viability ([8]; first compound 0.1265 µM): 1.12 | relative viability ([8]; first compound 0.4 µM): 0.965 | relative viability ([8]; first compound 1.265 µM): 0.859 | relative viability ([9]; first compound 0.04 µM): 0.39 | relative viability ([9]; first compound 0.1265 µM): 0.364 | relative viability ([9]; first compound 0.4 µM): 0.371 | relative viability ([9]; first compound 1.265 µM): 0.255 | relative viability ([10]; first compound 0.04 µM): 0.695 | relative viability ([10]; first compound 0.1265 µM): 0.619 | relative viability ([10]; first compound 0.4 µM): 0.608 | relative viability ([10]; first compound 1.265 µM): 0.656 | relative viability ([11]; first compound 0.04 µM): 0.353 | relative viability ([11]; first compound 0.1265 µM): 0.399 | relative viability ([11]; first compound 0.4 µM): 0.353 | relative viability ([11]; first compound 1.265 µM): 0.41 | relative viability ([12]; first compound 0.04 µM): 0.462 | relative viability ([12]; first compound 0.1265 µM): 0.524 | relative viability ([12]; first compound 0.4 µM): 0.468 | relative viability ([12]; first compound 1.265 µM): 0.374 | relative viability ([13]; first compound 0.04 µM): 0.31 | relative viability ([13]; first compound 0.1265 µM): 0.604 | relative viability ([13]; first compound 0.4 µM): 0.449 | relative viability ([13]; first compound 1.265 µM): 0.545 | relative viability ([14]; first compound 0.04 µM): 0.326 | relative viability ([14]; first compound 0.1265 µM): 0.399 | relative viability ([14]; first compound 0.4 µM): 0.283 | relative viability ([14]; first compound 1.265 µM): 0.298 | relative viability ([15]; first compound 0.04 µM): 0.546 | relative viability ([15]; first compound 0.1265 µM): 0.609 | relative viability ([15]; first compound 0.4 µM): 0.584 | relative viability ([15]; first compound 1.265 µM): 0.555 | relative viability ([16]; first compound 0.04 µM): 0.836 | relative viability ([16]; first compound 0.1265 µM): 0.738 | relative viability ([16]; first compound 0.4 µM): 0.723 | relative viability ([16]; first compound 1.265 µM): 0.738 | relative viability ([17]; first compound 0.04 µM): 0.489 | relative viability ([17]; first compound 0.1265 µM): 0.446 | relative viability ([17]; first compound 0.4 µM): 0.371 | relative viability ([17]; first compound 1.265 µM): 0.263 | relative viability ([18]; first compound 0.04 µM): 0.993 | relative viability ([18]; first compound 0.1265 µM): 0.889 | relative viability ([18]; first compound 0.4 µM): 0.701 | relative viability ([18]; first compound 1.265 µM): 0.681 | relative viability ([19]; first compound 0.04 µM): 0.736 | relative viability ([19]; first compound 0.1265 µM): 0.839 | relative viability ([19]; first compound 0.4 µM): 0.755 | relative viability ([19]; first compound 1.265 µM): 0.514 | relative viability ([20]; first compound 0.04 µM): 0.754 | relative viability ([20]; first compound 0.1265 µM): 0.507 | relative viability ([20]; first compound 0.4 µM): 0.611 | relative viability ([20]; first compound 1.265 µM): 0.592 | relative viability ([21]; first compound 0.04 µM): 0.775 | relative viability ([21]; first compound 0.1265 µM): 0.9 | relative viability ([21]; first compound 0.4 µM): 0.798 | relative viability ([21]; first compound 1.265 µM): 0.425 | relative viability ([22]; first compound 0.04 µM): 0.435 | relative viability ([22]; first compound 0.1265 µM): 0.429 | relative viability ([22]; first compound 0.4 µM): 0.497 | relative viability ([22]; first compound 1.265 µM): 0.388

Oc1nc(-c2ccc(C(F)(F)F)cc2)nc2c1CSCC2 [XAV939] + C[C@@H](Oc1cc(-c2cnn(C3CCNCC3)c2)cnc1N)c1c(Cl)ccc(F)c1Cl [Crizotinib] (partner 1 µM)
relative viability ([1]; first compound 0.08 µM): 0.971 | relative viability ([1]; first compound 0.253 µM): 0.64 | relative viability ([1]; first compound 0.8 µM): 0.781 | relative viability ([1]; first compound 2.53 µM): 0.473 | relative viability ([2]; first compound 0.08 µM): 0.502 | relative viability ([2]; first compound 0.253 µM): 0.425 | relative viability ([2]; first compound 0.8 µM): 0.436 | relative viability ([2]; first compound 2.53 µM): 0.426 | relative viability ([3]; first compound 0.08 µM): 0.994 | relative viability ([3]; first compound 0.253 µM): 0.896 | relative viability ([3]; first compound 0.8 µM): 0.977 | relative viability ([3]; first compound 2.53 µM): 0.902 | relative viability ([4]; first compound 0.08 µM): 0.875 | relative viability ([4]; first compound 0.253 µM): 0.719 | relative viability ([4]; first compound 0.8 µM): 0.759 | relative viability ([4]; first compound 2.53 µM): 0.432 | relative viability ([5]; first compound 0.08 µM): 0.986 | relative viability ([5]; first compound 0.253 µM): 0.724 | relative viability ([5]; first compound 0.8 µM): 0.66 | relative viability ([5]; first compound 2.53 µM): 0.779 | relative viability ([6]; first compound 0.08 µM): 0.785 | relative viability ([6]; first compound 0.253 µM): 0.796 | relative viability ([6]; first compound 0.8 µM): 0.79 | relative viability ([6]; first compound 2.53 µM): 0.75 | relative viability ([7]; first compound 0.08 µM): 1.07 | relative viability ([7]; first compound 0.253 µM): 0.666 | relative viability ([7]; first compound 0.8 µM): 0.919 | relative viability ([7]; first compound 2.53 µM): 0.737 | relative viability ([8]; first compound 0.08 µM): 0.897 | relative viability ([8]; first compound 0.253 µM): 0.818 | relative viability ([8]; first compound 0.8 µM): 0.887 | relative viability ([8]; first compound 2.53 µM): 0.949 | relative viability ([9]; first compound 0.08 µM): 0.729 | relative viability ([9]; first compound 0.253 µM): 0.45 | relative viability ([9]; first compound 0.8 µM): 0.563 | relative viability ([9]; first compound 2.53 µM): 0.573 | relative viability ([10]; first compound 0.08 µM): 0.995 | relative viability ([10]; first compound 0.253 µM): 1.03 | relative viability ([10]; first compound 0.8 µM): 0.94 | relative viability ([10]; first compound 2.53 µM): 0.866 | relative viability ([11]; first compound 0.08 µM): 1.12 | relative viability ([11]; first compound 0.253 µM): 0.955 | relative viability ([11]; first compound 0.8 µM): 1.06 | relative viability ([11]; first compound 2.53 µM): 0.93 | relative viability ([12]; first compound 0.08 µM): 1.09 | relative viability ([12]; first compound 0.253 µM): 0.95 | relative viability ([12]; first compound 0.8 µM): 0.975 | relative viability ([12]; first compound 2.53 µM): 0.586 | relative viability ([13]; first compound 0.08 µM): 1.14 | relative viability ([13]; first compound 0.253 µM): 0.785 | relative viability ([13]; first compound 0.8 µM): 1.05 | relative viability ([13]; first compound 2.53 µM): 0.932 | relative viability ([14]; first compound 0.08 µM): 1.02 | relative viability ([14]; first compound 0.253 µM): 0.934 | relative viability ([14]; first compound 0.8 µM): 0.882 | relative viability ([14]; first compound 2.53 µM): 0.842 | relative viability ([15]; first compound 0.08 µM): 0.868 | relative viability ([15]; first compound 0.253 µM): 0.788 | relative viability ([15]; first compound 0.8 µM): 0.978 | relative viability ([16]; first compound 0.08 µM): 0.918 | relative viability ([16]; first compound 0.253 µM): 0.909 | relative viability ([16]; first compound 0.8 µM): 0.794 | relative viability ([16]; first compound 2.53 µM): 0.729 | relative viability ([17]; first compound 0.08 µM): 1.03 | relative viability ([17]; first compound 0.253 µM): 0.915 | relative viability ([17]; first compound 0.8 µM): 0.947 | relative viability ([17]; first compound 2.53 µM): 0.788 | relative viability ([18]; first compound 0.08 µM): 1.01 | relative viability ([18]; first compound 0.253 µM): 0.945 | relative viability ([18]; first compound 0.8 µM): 0.736 | relative viability ([18]; first compound 2.53 µM): 0.545 | relative viability ([19]; first compound 0.08 µM): 0.968 | relative viability ([19]; first compound 0.253 µM): 0.746 | relative viability ([19]; first compound 0.8 µM): 0.823 | relative viability ([19]; first compound 2.53 µM): 0.743 | relative viability ([20]; first compound 0.08 µM): 0.178 | relative viability ([20]; first compound 0.253 µM): 0.224 | relative viability ([20]; first compound 0.8 µM): 0.181 | relative viability ([20]; first compound 2.53 µM): 0.207 | relative viability ([21]; first compound 0.08 µM): 0.77 | relative viability ([21]; first compound 0.253 µM): 0.675 | relative viability ([21]; first compound 0.8 µM): 0.671 | relative viability ([21]; first compound 2.53 µM): 0.555 | relative viability ([22]; first compound 0.08 µM): 0.821 | relative viability ([22]; first compound 0.253 µM): 0.762 | relative viability ([22]; first compound 0.8 µM): 0.698 | relative viability ([22]; first compound 2.53 µM): 0.621
